Measurements published in patent publication US9023986B2, “Glucose-dependent insulinotropic peptide analogs” (Hoffmann-La Roche Inc., priority 2010, dated 2015).
Non-standard residues stand in square brackets, D forms with d. Residues, ends and D or L forms follow the SMILES beside them.

Key:
[1] = stability in human plasma; type: in vitro ADME
Procedure: (§1) The following study was conducted to assess the stability of the compound of Example 19 in Hannover Wistar rat and human plasma after 4 and 24 hours.
(§2) 2.08 mg of the compound of Example 19 was weighed out and placed in a 4 mL amber vial. To this was added 1.0 mL DMSO. The vial was carefully vortexed to produce a 573 μM stock solution of the compound.
(§3) Hannover Wistar rat plasma and human plasma (anti-coagulant sodium EDTA) were pre-warmed to 37° C. for 30 minutes in a water bath. Rat plasma pH was 7.45 and human plasma pH was 7.47. 1.5 mL microcentrifuge vials were used.
(§4) 8.70 μL of 573 μM stock solution of the compound of Example 19 was added to 491.34 μL of the rat plasma and placed into one vial. 8.74 μL of 573 μM stock solution of the compound of Example 19 was added to 491.34 μL of the human plasma and placed into another vial. The two vials were gently vortexed ensuring proper mixing.
(§5) Six new vials were labeled as follows: rat T0, rat T4, rat T24, human T0, human T4, human T24. To each of these vials, […] of treated plasma was added. The T4 and T24 vials were capped and placed in a 37° C. incubator for 4 and 24 hours, respectively.
(§6) To each of the two T0 vials, 50 µL of Sorensen buffer and 200 μL 1.0% acetic acid in acetonitrile were added. The T0 vials were then capped, vortexed and centrifuged at 10000×g for 10 minutes. Upon completion of centrifugation, 100 μL of the supernatant of each vial was added to a separate well in a 96-well injection block. 200 μL of 0.1% acetic acid in Milli-Q® water (Millipore) was then added to each well.
(§7) The above procedure as written with respect to the T0 vials was repeated for the two T4 vials at the 4 hour timepoint and the T24 vials at the 24 hour timepoint. With each timepoint a fresh T0 sample was prepared, as described above, to ensure there was no sample degradation.
(§8) All samples were analyzed by LC/MS/MS. The resulting chromatographs were processed to obtain peaks areas for each sample. The percent of compound remaining at each timepoint as compared with the amount present in the comparison T0 sample was calculated.

[2] = stability in Hannover Wistar rat plasma; type: in vitro ADME; details: for stability in rat plasma (in words): acceptance range 75-125%
Procedure: as §1, §2, §3, §4, §5, §6, §7, §8

human GIPR = target: T1, human GIPR (Homo sapiens, UniProt P48546); experiment: cAMP production in CHO-K1 cells expressing human GIPR (LANCE cAMP assay); type: cell-based; details: CHO-K1, read-out: % activation of cAMP (maximal stimulation)
T1 construct: host or cells: CHO-K1
T1 sequence (P48546 22-466): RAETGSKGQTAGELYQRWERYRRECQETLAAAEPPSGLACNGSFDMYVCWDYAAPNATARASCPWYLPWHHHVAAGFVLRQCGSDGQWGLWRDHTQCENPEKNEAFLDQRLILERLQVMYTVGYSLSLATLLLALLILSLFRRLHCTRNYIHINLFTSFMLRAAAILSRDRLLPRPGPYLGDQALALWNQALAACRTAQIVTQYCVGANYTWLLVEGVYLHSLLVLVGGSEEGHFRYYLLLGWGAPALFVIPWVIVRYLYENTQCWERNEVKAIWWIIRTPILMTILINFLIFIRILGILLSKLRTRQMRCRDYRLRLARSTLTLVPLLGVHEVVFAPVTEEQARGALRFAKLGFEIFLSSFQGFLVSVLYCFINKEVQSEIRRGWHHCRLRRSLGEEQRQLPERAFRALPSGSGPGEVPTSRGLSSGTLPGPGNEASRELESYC
Procedure: CHO—K1 cells expressing human GIPR were obtained from DiscoverX Corporation (Fremont, Calif.). The cells were cultured in Ham's F-12 nutrient media supplemented with 10% foetal bovine serum, 800 μg/ml geneticin, 300 μg/ml hydromycin, 2 mM L-glutamine, and Penicillin-streptomycin (100 units, 100 μg) at 37° C. in a 5% CO2 incubator. The cells were harvested at 90% confluence.
The cells were suspended in Ham's F-12 nutrient media to a concentration of 200,000 cells/ml. The cells were then plated in a 384 well plate at with […] of the suspension added per well. The cells were incubated overnight at 37° C. in a 5% CO2 incubator.
The activity of the compounds was determined by stimulating the CHO—K1 cells with the test compound, and measuring the levels of cAMP produced. The activity of the compounds was compared to the activity of native GIP, as GIP stimulates cAMP production. 6 μl of the test compound in stimulation buffer (990 ml Hank's Balanced Salt solution (HBSS) (1×) (Invitrogen Corp #14025-092), 10 ml Hepes buffer solution (1 mol·L) (Invitrogen Corp 15630-080), 1 g BSA (final 0.1%), and 1 ml IBMX 250 mM stock prepared fresh in DMSO (Sigma-Aldrich 15879)) were added to cells, followed by 6 μl of Alexa Fluor® 647-anti cAMP antibody (Perkin Elmer) in stimulation buffer. […] The well plate was centrifuged for 3 min at 300 rpm, and incubated at room temperature for 45 minutes. 12 μl of detection mixture (biotin cAMP and EUW8044 labeled streptavidin (Eu-SA) in cAMP Detection Buffer (Perkin Elmer)) was added and incubated for 60 min at room temperature.
The levels of cAMP produced were measured according to the detailed protocol outlined in the Perkin Elmer LANCE cAMP Assay Perkin Elmer Lance cAMP Kit manual. The activity of the compounds was compared to the activity of native GIP.
The plates are read on a TRF detection instrument, EnVision® (Perkin Elmer) (excitation at 340 nm and emission at 665 nm). The values of the cAMP signal are obtained from the standard cAMP curve and used to determine the amount of maximal stimulation, and EC50 for stimulating the cAMP signal.

CC[C@H](C)[C@H](NC(=O)[C@H](C)NC(=O)[C@H](CC(=O)O)NC(=O)[C@H](CCSC)NC(=O)[C@H](C)NC(=O)[C@@H](NC(=O)[C@H](CO)NC(=O)[C@H](Cc1ccc(O)cc1)NC(=O)[C@H](CC(=O)O)NC(=O)[C@H](CO)NC(=O)[C@@H](NC(=O)[C@H](Cc1ccccc1)NC(=O)[C@@H](NC(=O)CNC(=O)[C@H](CCC(=O)O)NC(=O)[C@H](C)NC(=O)[C@@H](Cc1ccc(O)cc1)NC(C)=O)[C@@H](C)O)[C@@H](C)CC)[C@@H](C)CC)C(=O)N[C@@H](Cc1c[nH]cn1)C(=O)N[C@@H](CCC(N)=O)C(=O)N[C@@H](CCC(N)=O)C(=O)N[C@@H](CC(=O)O)C(=O)N[C@@H](Cc1ccccc1)C(=O)N[C@H](C(=O)N[C@@H](CC(N)=O)C(=O)N[C@@H](Cc1c[nH]c2ccccc12)C(=O)N[C@@H](CC(C)C)C(=O)N[C@@H](CC(C)C)C(=O)N[C@@H](C)C(=O)N[C@@H](CCC(N)=O)C(=O)N[C@@H](CCCCN)C(N)=O)C(C)C [Example 19] (Ac-[dY]AEGTFISDYSIAMDAIHQQDFVNWLLAQK-NH2)
stability in human plasma (in words) ([1]; both the 4 hour and the 24 hour timepoints): stable
remaining at 4 h, 10 µM ([1]; pH 7.47, 10 uM, 37° C., 4 hr, vs T0 sample, LC/MS/MS): 93.6%
remaining at 24 h, 10 µM ([1]; pH 7.47, 10 uM, 37° C., 24 hr, vs T0 sample, LC/MS/MS): 75.9%
% Remaining 4 hr, Rat ([2]; 10 uM, 37° C., 4 hr, vs T0 sample, LC/MS/MS): 124.7%
stability in rat plasma (in words) ([2]; 4 hours): stable
stability in rat plasma (in words) ([2]; 24 hour timepoint): slightly below the acceptance range
remaining at 24 h, 10 µM ([2]; Hannover Wistar, pH 7.45, 10 uM, 37° C., 24 hr, vs T0 sample, LC/MS/MS): 72.7%
Emax (human GIPR): 100%
